From patent US9260425B2 (Genetech, Inc., priority 2011, dated 2016)

Target: Pim-1 (Homo sapiens (Human), UniProt P11309)
Assay: Pim kinase binding activity assay (Example 901), PIM-1 enzyme, Caliper microfluidic peptide phosphorylation
Assay type: biochemical
Settings: 20 pM PIM-1, 10 μM ATP, 1 μM FAM-peptide, 90 minutes at room temperature
In short: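 PIM-1 at 20 pM phosphorylated 1 μM FAM-labelled Pim peptide with 10 μM ATP in HEPES pH 7.2, MgCl2, Tween 20 and DTT for 90 min at room temperature. EDTA stopped the reaction, and product and substrate were resolved by microfluidic electrophoresis (ex 488/em 530 nm). Ki was derived from substrate conversion.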

Sequence of Pim-1 (P11309 whole entry): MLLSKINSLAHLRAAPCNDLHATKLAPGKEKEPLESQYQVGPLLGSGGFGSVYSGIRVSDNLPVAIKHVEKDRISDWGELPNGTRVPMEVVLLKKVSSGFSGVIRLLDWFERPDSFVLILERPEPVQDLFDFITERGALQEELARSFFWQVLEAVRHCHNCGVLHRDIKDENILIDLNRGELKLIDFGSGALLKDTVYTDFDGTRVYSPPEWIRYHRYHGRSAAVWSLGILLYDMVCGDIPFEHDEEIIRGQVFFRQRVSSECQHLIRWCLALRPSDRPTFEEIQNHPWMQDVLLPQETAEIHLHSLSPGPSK

Row | Compound | Ki [nM]
1 | CCn1cc(-c2cc3c(-c4cccc(N5CCNCC(CO)C5)n4)n[nH]c3cn2)cn1 (stereo not shown) [Example 512, (1-(6-(5-(1-ethyl-1H-pyrazol-4-yl)-1H-pyrazolo[3,4-c]pyridin-3-yl)pyridin-2-yl)-1,4-diazepan-6-yl)methanol] | 0.04
2 | CCc1cncc(-c2cc3c(-c4cccc(N5CCNCC5)n4)n[nH]c3cn2)c1 [Example 438, 5-(5-ethylpyridin-3-yl)-3-(6-(piperazin-1-yl)pyridin-2-yl)-1H-pyrazolo[3,4-c]pyridine] | 0.004
3 | N[C@H]1C[C@@H](F)CN(c2cccc(-c3n[nH]c4cnc(-c5cccnc5)cc34)n2)C1 [Example 321, (3S,5R)-5-fluoro-1-(6-(5-(pyridin-3-yl)-1H-pyrazolo[3,4-c]pyridin-3-yl)pyridin-2-yl)piperidin-3-amine] | 0.0662
4 | NCCNc1cc(-c2n[nH]c3cnc(-c4cccnc4)cc23)ccn1 [Example 159, N1-(4-(5-(pyridin-3-yl)-1H-pyrazolo[3,4-c]pyridin-3-yl)pyridin-2-yl)ethane-1,2-diamine] | 0.941
5 | NC[C@H]1CCN(c2cncc(-c3cc4c(-c5ccccc5F)n[nH]c4cn3)c2)C1 [Example 164, (R)-(1-(5-(3-(2-fluorophenyl)-1H-pyrazolo[3,4-c]pyridin-5-yl)pyridin-3-yl)pyrrolidin-3-yl)methanamine] | 1.9
6 | CCn1cc(-c2cc3c(-c4ccc(C)c(N5CCNCC5)n4)n[nH]c3cn2)cn1 [Example 432, 5-(1-ethyl-1H-pyrazol-4-yl)-3-(5-methyl-6-(piperazin-1-yl)pyridin-2-yl)-1H-pyrazolo[3,4-c]pyridine] | 0.055
7 | Cc1ccc(-c2n[nH]c3cnc(-c4cccnc4)cc23)nc1N1CC(N2CCNC(=O)C2)C1 [Example 426, 4-(1-(3-methyl-6-(5-(pyridin-3-yl)-1H-pyrazolo[3,4-c]pyridin-3-yl)pyridin-2-yl)azetidin-3-yl)piperazin-2-one] | 0.46
8 | C[C@]1(N)CCCN(c2cccc(-c3n[nH]c4cnc(-c5cccnc5)cc34)n2)C1 [Example 343, (S)-3-methyl-1-(6-(5-(pyridin-3-yl)-1H-pyrazolo[3,4-c]pyridin-3-yl)pyridin-2-yl)piperidin-3-amine] | 0.045
9 | N[C@H]1CCN(c2ccc(-c3n[nH]c4cnc(-c5cccnc5)cc34)cn2)C1 [Example 202, (S)-1-(5-(5-(pyridin-3-yl)-1H-pyrazolo[3,4-c]pyridin-3-yl)pyridin-2-yl)pyrrolidin-3-amine] | 1
10 | N[C@H]1CCC[C@@H](Nc2cccc(-c3n[nH]c4cnc(-c5cccnc5)cc34)n2)C1 [Example 340, (1R,3S)-N1-(6-(5-(pyridin-3-yl)-1H-pyrazolo[3,4-c]pyridin-3-yl)pyridin-2-yl)cyclohexane-1,3-diamine] | 0.044
11 | NCC1CCN(c2cncc(-c3n[nH]c4cnc(-c5cccnc5)cc34)c2)CC1 [Example 165, (1-(5-(5-(pyridin-3-yl)-1H-pyrazolo[3,4-c]pyridin-3-yl)pyridin-3-yl)piperidin-4-yl)methanamine] | 0.985
12 | NC[C@@H]1CCN(c2ccncc2-c2cc3c(-c4ccccc4F)n[nH]c3cn2)C1 [Example 130, (S)-(1-(3-(3-(2-fluorophenyl)-1H-pyrazolo[3,4-c]pyridin-5-yl)pyridin-4-yl)pyrrolidin-3-yl)methanamine] | 1500
13 | c1ccc(-c2n[nH]c3cnc(-c4cncs4)cc23)cc1 [Example 323, 5-(3-phenyl-1H-pyrazolo[3,4-c]pyridin-5-yl)thiazole] | 33
14 | Cc1ccc(-c2n[nH]c3cnc(-c4cnn(C)c4)cc23)nc1N1CCC[C@H](N)C1 [Example 433, (S)-1-(3-methyl-6-(5-(1-methyl-1H-pyrazol-4-yl)-1H-pyrazolo[3,4-c]pyridin-3-yl)pyridin-2-yl)piperidin-3-amine] | 0.013
15 | Cn1cc(-c2cc3c(-c4ccccn4)n[nH]c3cn2)cn1 [Example 332, 5-(1-methyl-1H-pyrazol-4-yl)-3-(pyridin-2-yl)-1H-pyrazolo[3,4-c]pyridine] | 7.71
16 | Cn1cc(-c2cc3c(-c4ccc(C5CC5)c(N5CCC[C@H](N)C5)n4)n[nH]c3cn2)cn1 [Example 486, (S)-1-(3-cyclopropyl-6-(5-(1-methyl-1H-pyrazol-4-yl)-1H-pyrazolo[3,4-c]pyridin-3-yl)pyridin-2-yl)piperidin-3-amine] | 0.009
17 | c1cc(-c2n[nH]c3cnc(-c4cnn(C5CC5)c4)cc23)nc(N2CCNCC2)c1 [Example 487, 5-(1-cyclopropyl-1H-pyrazol-4-yl)-3-(6-(piperazin-1-yl)pyridin-2-yl)-1H-pyrazolo[3,4-c]pyridine] | 0.106
18 | O[C@@H]1CCCN(c2cccc(-c3n[nH]c4cnc(-c5cccnc5)cc34)n2)C1 [Example 271, (R)-1-(6-(5-(pyridin-3-yl)-1H-pyrazolo[3,4-c]pyridin-3-yl)pyridin-2-yl)piperidin-3-ol] | 0.073
19 | c1ccc(-c2n[nH]c3cnc(-n4ccnc4)cc23)cc1 [Example 146, 5-(1H-imidazol-1-yl)-3-phenyl-1H-pyrazolo[3,4-c]pyridine] | 26.7
20 | CCc1ccc(-c2n[nH]c3cnc(-c4cnn(CC)c4)cc23)nc1N1CCC[C@H](N)C1 [Example 477, (S)-1-(3-ethyl-6-(5-(1-ethyl-1H-pyrazol-4-yl)-1H-pyrazolo[3,4-c]pyridin-3-yl)pyridin-2-yl)piperidin-3-amine] | 0.013
21 | CCn1cc(-c2cc3c(-c4cc(OC)ccn4)n[nH]c3cn2)cn1 [Example 476, 5-(1-ethyl-1H-pyrazol-4-yl)-3-(4-methoxypyridin-2-yl)-1H-pyrazolo[3,4-c]pyridine] | 15.7
22 | CCn1cc(-c2cc3c(-c4ccc(C)c(N5CCC[C@@H](N)C5)n4)n[nH]c3cn2)cn1 [Example 443, (R)-1-(6-(5-(1-ethyl-1H-pyrazol-4-yl)-1H-pyrazolo[3,4-c]pyridin-3-yl)-3-methylpyridin-2-yl)piperidin-3-amine] | 0.1
23 | c1cc(-c2n[nH]c3cnc(C4CCOC4)cc23)nc(N2CCNCC2)c1 (stereo not shown) [Example 212, 3-(6-(piperazin-1-yl)pyridin-2-yl)-5-(tetrahydrofuran-3-yl)-1H-pyrazolo[3,4-c]pyridine] | 8.48
24 | Fc1ccccc1-c1n[nH]c2cnc(-c3cnccc3OCC3CCNCC3)cc12 [Example 155, 3-(2-fluorophenyl)-5-(4-(piperidin-4-ylmethoxy)pyridin-3-yl)-1H-pyrazolo[3,4-c]pyridine] | 0.614
25 | FCCn1cc(-c2cc3c(-c4cccc(N5CCCNCC5)n4)n[nH]c3cn2)cn1 [Example 489, 3-(6-(1,4-diazepan-1-yl)pyridin-2-yl)-5-(1-(2-fluoroethyl)-1H-pyrazol-4-yl)-1H-pyrazolo[3,4-c]pyridine] | 0.014
26 | O=C1CN(c2cccc(-c3n[nH]c4cnc(-c5cccnc5)cc34)n2)CCCN1 [Example 322, 4-(6-(5-(pyridin-3-yl)-1H-pyrazolo[3,4-c]pyridin-3-yl)pyridin-2-yl)-1,4-diazepan-2-one] | 0.322
27 | Fc1ccccc1-c1n[nH]c2cnc(-c3cnc[nH]3)cc12 [Example 218, 3-(2-fluorophenyl)-5-(1H-imidazol-5-yl)-1H-pyrazolo[3,4-c]pyridine] | 30.9
28 | Cn1cc(-c2cc3c(-c4cccc(N5CCC(N)CC5)n4)n[nH]c3cn2)cn1 [Example 174, 1-(6-(5-(1-methyl-1H-pyrazol-4-yl)-1H-pyrazolo[3,4-c]pyridin-3-yl)pyridin-2-yl)piperidin-4-amine] | 0.086
